Results from US11958876B2, “Carbacyclic phosphatidic acid compound” (OTSUKA CHEMICAL CO., LTD., priority 2019, dated 2024).
Where a name gives a salt, the structure may show the parent alone. Blank lines part the entries; values can stand above or below the compound they belong to.

Assay: Stability test of 2ccPA crystals with added 2ccPA-L or 2ccPA-P (thermo-hygrostat, HPLC purity)
Type: physicochemical
Details: 40° C., humidity 60%
Description: 2ccPA-L of Example 2 or 2ccPA-P of Comparative Example 2 was added to 2ccPA, and a stability test was performed. • Control: 2ccPA crystal • Test substances: crystals obtained by adding 2ccPA-L or 2ccPA-P at each concentration to 2ccPA, followed by crystallization with methanol and acetone. (2) Execution Conditions
In the stability test, a thermo-hygrostat (Yamato Scientific Co., Ltd., IW223) was used. The stability test was performed while maintaining a set temperature of 40° C. and a set humidity of 60%.
The sample purity was confirmed in such a manner that about 10 mg of each sample was weighed every week and diluted with 2 mL of acetonitrile/water (volume ratio: 1/1), and the diluted solution was analyzed by high-performance liquid chromatography (Shimadzu LC20AD).
The results are shown in Table 1 (Example 2) and Table 2 (Comparative Example 2). Tables 1 and 2 focus only on 2ccPA, and show the residual rate thereof with the initial content of 2ccPA as 100 mass %.

- Stability test (1 week): residual rate of 2ccPA (control 2ccPA crystal, 0 mass % additive, 1 week, initial 2ccPA content as 100 mass %): 100%
- Stability test (2 weeks): residual rate of 2ccPA (control 2ccPA crystal, 0 mass % additive, 2 weeks, initial 2ccPA content as 100 mass %): 94.4%
Compound: CCCCCCCC/C=C\CCCCCCCC(=O)OCC1COP(=O)(O)C1 (stereo not shown) [Example 2ccPA, sodium salt of 9-octadecenoic acid (9Z)-(2-hydroxy-2-oxo-2λ^5-1,2-oxaphosphoran-4-yl)methyl ester]

- Effect on purity of 2ccPA on storage (in words) (2ccPA-L coexisting with 2ccPA, storage 1 or 2 weeks): hardly reduced
Compound: CCCCC/C=C\C/C=C\CCCCCCCC(=O)OCC1COP(=O)(O)C1 (stereo not shown) [Example 2ccPA-L]

- Effect on purity of 2ccPA on storage (in words) (0.15 mass % 2ccPA-P added to 2ccPA): the purity was reduced
Compound: CCCCCCCCCCCCCCCC(=O)OCC1COP(=O)(O)C1 (stereo not shown) [Example 2ccPA-P]
